Data from the supplement of paper PMC4932681.
Counter-ions that a name gives are not always drawn.

Legend:
[1] = system: BT-474 Tam1; assay: drug sensitivity score (DSS) (DSS (dimensionless)); higher = more sensitive; extreme values may be limits of the assay; conditions: 4-OH-tamoxifen in medium 1 µM; 72 h
Description: (§1)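 FIMM FO2B library drugs were tested at 5 concentrations (10,000-fold range) for 72 h, with CellTiter-Glo viability normalised to DMSO and benzethonium chloride controls. The Drug Sensitivity Score (DSS) is computed from the fitted logistic dose-response curve (area-based; 0 = inactive). Resistant lines and the 'in 1µM tamoxifen' arms were tested in 1 µM 4-OH-tamoxifen.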

[2] = system: BT-474; assay: as above; conditions: 72 h
Description: as §1

[3] = system: ZR-75-1; assay: as above; conditions: 72 h
Description: as §1

[4] = system: T-47D; assay: as above; conditions: 72 h
Description: as §1

[5] = system: ZR-75-1 Tam1; assay: as above; conditions: 4-OH-tamoxifen in medium 1 µM; 72 h
Description: as §1

[6] = system: BT-474 Tam2; assay: as above; conditions: 4-OH-tamoxifen in medium 1 µM; 72 h
Description: as §1

[7] = system: T-47D Tam1; assay: as above; conditions: 4-OH-tamoxifen in medium 1 µM; 72 h
Description: as §1

[8] = system: T-47D Tam2; assay: as above; conditions: 4-OH-tamoxifen in medium 1 µM; 72 h
Description: as §1

[9] = system: MCF-7; assay: as above; conditions: 72 h
Description: as §1

[10] = system: MCF-7 Tam1; assay: as above; conditions: 4-OH-tamoxifen in medium 1 µM; 72 h
Description: as §1

[11] = system: ZR-75-1 Tam2; assay: as above; conditions: 4-OH-tamoxifen in medium 1 µM; 72 h
Description: as §1

[12] = system: BT-474; assay: relative IC50 (midpoint of fitted logistic curve, plateau may be below 50% inhibition; CellTiter-Glo viability); higher = less potent; conditions: 72 h
Description: (§2)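 FIMM FO2B library drugs were plated at 5 concentrations spanning a 10,000-fold range in 384-well plates. Cells were incubated for 72 h at 37 °C and viability was read by CellTiter-Glo, normalised to DMSO (0% inhibition) and 100 µM benzethonium chloride (100% inhibition). IC50 values come from logistic dose-response fits (Breeze pipeline). Tamoxifen-resistant lines and the 'in 1µM tamoxifen' parental arms were tested in medium with 1 µM 4-OH-tamoxifen.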

[13] = system: ZR-75-1; assay: as above; conditions: 72 h
Description: as §2

[14] = system: T-47D; assay: as above; conditions: 72 h
Description: as §2

[15] = system: ZR-75-1 Tam1; assay: as above; conditions: 4-OH-tamoxifen in medium 1 µM; 72 h
Description: as §2

[16] = system: T-47D Tam1; assay: as above; conditions: 4-OH-tamoxifen in medium 1 µM; 72 h
Description: as §2

[17] = system: MCF-7; assay: as above; conditions: 72 h
Description: as §2

[18] = system: ZR-75-1 Tam2; assay: as above; conditions: 4-OH-tamoxifen in medium 1 µM; 72 h
Description: as §2

[19] = system: BT-474 Tam1; assay: as above; conditions: 4-OH-tamoxifen in medium 1 µM; 72 h
Description: as §2

[20] = system: BT-474 Tam2; assay: as above; conditions: 4-OH-tamoxifen in medium 1 µM; 72 h
Description: as §2

[21] = system: MCF-7 Tam1; assay: as above; conditions: 4-OH-tamoxifen in medium 1 µM; 72 h
Description: as §2

| SMILES | drug sensitivity score [1] | drug sensitivity score ([2]; 4-OH-tamoxifen in medium 0 µM) | drug sensitivity score ([2]; 4-OH-tamoxifen in medium 1 µM) | drug sensitivity score ([3]; 4-OH-tamoxifen in medium 0 µM) | drug sensitivity score ([3]; 4-OH-tamoxifen in medium 1 µM) | drug sensitivity score ([4]; 4-OH-tamoxifen in medium 0 µM) | drug sensitivity score ([4]; 4-OH-tamoxifen in medium 1 µM) | drug sensitivity score [5] | drug sensitivity score [6] | drug sensitivity score [7] | drug sensitivity score [8] | drug sensitivity score ([9]; 4-OH-tamoxifen in medium 0 µM) | drug sensitivity score ([9]; 4-OH-tamoxifen in medium 1 µM) | drug sensitivity score [10] | drug sensitivity score [11] | relative IC50 ([12]; 4-OH-tamoxifen in medium 1 µM) [nM] | relative IC50 ([13]; 4-OH-tamoxifen in medium 0 µM) [nM] | relative IC50 ([13]; 4-OH-tamoxifen in medium 1 µM) [nM] | relative IC50 ([14]; 4-OH-tamoxifen in medium 0 µM) [nM] | relative IC50 [15] [nM] | relative IC50 [16] [nM] | relative IC50 ([17]; 4-OH-tamoxifen in medium 0 µM) [nM] | relative IC50 ([17]; 4-OH-tamoxifen in medium 1 µM) [nM] | relative IC50 [18] [nM] | relative IC50 [19] [nM] | relative IC50 ([12]; 4-OH-tamoxifen in medium 0 µM) [nM] | relative IC50 ([14]; 4-OH-tamoxifen in medium 1 µM) [nM] | relative IC50 [20] [nM] | relative IC50 [21] [nM] |
| --- | --- | --- | --- | --- | --- | --- | --- | --- | --- | --- | --- | --- | --- | --- | --- | --- | --- | --- | --- | --- | --- | --- | --- | --- | --- | --- | --- | --- | --- |
| CO[C@H]1C[C@@H]2CC[C@@H](C)[C@@](O)(O2)C(=O)C(=O)N2CCCC[C@H]2C(=O)O[C@H]([C@H](C)C[C@@H]2CC[C@@H](OP(C)(C)=O)[C@H](OC)C2)CC(=O)[C@H](C)/C=C(\C)[C@@H](O)[C@@H](OC)C(=O)[C@H](C)C[C@H](C)/C=C/C=C/C=C/1C [Ridaforolimus] | 2 | 6.16 | 0 | 8.67 | 4.9 | 4.69 | 1.51 | 5.15 | 2.86 | 5.75 | 2.97 | 12.2 | 5.81 | 0.718 | 10.1 | > 100 | 1.23 | 1.76 | 5.63 | 3.27 | 2.06 | 1.03 | 3.28 | 1 |  |  |  |  |  |
| COc1cc(OC2CCN(C)CC2)ccc1Nc1ncc2c(n1)n(C1CCCC1)c(=O)n2C [AZ 3146] | 3.57 | 0 | 7.15 | 0.724 | 0.0431 | 1.1 | 0.111 | 0.233 | 0.781 | 0 | 0.886 | 0.951 | 0.135 | 0.007 | 0.671 | 1590 |  |  |  |  | > 10000 |  |  |  | 3660 | > 10000 |  |  |  |
| Nc1ccccc1NC(=O)c1ccc(CNC(=O)OCc2cccnc2)cc1 [Entinostat] | 3.73 | 3.08 | 4.39 | 1.19 | 0 | 2.94 | 1.33 | 1.06 | 3.18 | 5.11 | 0.0349 | 3.59 | 1.94 | 0 | 0.992 | 3390 | 3960 |  | 3890 |  | 1820 | 2990 | 3280 |  | 3730 | 3440 | 3990 | 2810 |  |
| CC[C@@H]1C(=O)N(C)c2cnc(Nc3ccc(C(=O)N[C@H]4CC[C@H](N5CCN(CC6CC6)CC5)CC4)cc3OC)nc2N1C(C)C [Volasertib (BI 6727)] | 0.654 | 1.47 | 7.11 | 0 | 0.706 | 1.16 | 2.85 | 1.07 | 0 | 2.19 | 2.13 | 2.8 | 7 | 0 | 0.29 |  | > 1000 |  | 361 |  |  |  | 12.5 |  |  |  |  | > 1000 | > 1000 |
| Cn1cc(C2=Nc3cc(NC(=O)C(N)C4CCCCC4)cc4c3C2=CNNC4=O)cn1 (stereo not drawn) | 0 | 0 | 0 | 0 | 0 | 0 | 0.174 | 0 | 0 | 4.76 | 2.29 | 2.19 | 0.0458 | 0 | 0 | > 10000 | > 10000 | > 10000 | > 10000 | > 10000 | 1410 | 1890 |  | > 10000 | > 10000 | > 10000 |  | > 10000 |  |
| Cc1sc2c(c1C)C(c1ccc(Cl)cc1)=N[C@@H](CC(=O)OC(C)(C)C)c1nnc(C)n1-2 [(+)JQ1] | 8.34 | 6.3 | 7.87 | 3.81 | 4.27 | 5.63 | 2.13 | 7.1 | 8.29 | 11 | 2.91 | 12.8 | 6.92 | 0.216 | 6.24 | 1060 |  | 359 | 345 | 238 | 146 | 189 | 851 | 336 | 1140 | 136 |  | 1120 |  |
| Cc1c(C(=O)Nc2ccc(N3C[C@@H](C)O[C@@H](C)C3)nc2)cccc1-c1ccc(OC(F)(F)F)cc1 [Erismodegib (NVP-LDE225)] | 0.226 | 0.627 | 1.78 | 0 | 0.747 | 0.587 | 0 | 0.271 | 1.6 | 0 | 1.05 | 0.927 | 0.267 | 0.695 | 0 | 3610 | > 10000 |  |  |  | > 10000 |  |  | > 10000 |  |  | > 10000 |  |  |
| O=C(c1ccc(OCCN2CCCCC2)cc1)c1c(-c2ccc(O)cc2)sc2cc(O)ccc12 [Raloxifene  HCl] | 1.74 | 0.75 | 2.42 | 0.0043 | 0.0503 | 0.0005 | 0 | 0 | 1.14 | 0.0352 | 1.8 | 3.69 | 1.88 | 0.681 | 0 | 3740 |  |  |  | > 10000 |  | 553 | 2650 | > 10000 | 4000 |  | > 10000 | 4220 |  |
